For 15 molecules, EC50 results are on record in patent US8754068B2, “Modified C-3 betulinic acid derivatives as HIV maturation inhibitors” (priority 2010, dated 2014).

pEC50: −log10 of the molar value.

The test system of this assay is recombinant NL4-3 virus (Renilla luciferase in nef, Gag P373S). The assay can be described thus: HIV cell culture assay (luciferase reporter virus in MT-2 cells). The note with it: NL43. It counts as cell-based. As to the method: HIV cell culture assay—MT-2 cells and 293T cells were obtained from the NIH AIDS Research and Reference Reagent Program. MT-2 cells were propagated in RPMI 1640 media supplemented with 10% heat inactivated fetal bovine serum, […]. The 293T cells were propagated in DMEM media supplemented with 10% heat inactivated fetal bovine serum (FBS), 100 units/ml penicillin G and 100 μg/ml streptomycin. The proviral DNA clone of NL4-3 was obtained from the NIH AIDS Research and Reference Reagent Program. A recombinant NL4-3 virus, in which a section of the nef gene from NL4-3 was replaced with the Renilla luciferase gene, was used as a reference virus. In addition, residue Gag P373 was converted to P373S. Briefly, the recombinant virus was prepared by transfection of the altered proviral clone of NL4-3. Transfections were performed in 293T cells using LipofectAMINE PLUS from Invitrogen (Carlsbad, Calif.), according to manufacturer's instruction. The virus was titered in MT-2 cells using luciferase enzyme activity as a marker. Luciferase was quantitated using the Dual Luciferase kit from Promega (Madison, Wis.), with modifications to the manufacturer's protocol. The diluted Passive Lysis solution was pre-mixed with the re-suspended Luciferase Assay Reagent and the re-suspended Stop & Glo Substrate (2:1:1 ratio). Fifty (50) μL of the mixture was added to each aspirated well on assay plates and luciferase activity was measured immediately on a Wallac TriLux (Perkin-Elmer). Antiviral activities of inhibitors toward the recombinant virus were quantified by measuring luciferase activity in cells infected for 4-5 days with NLRluc recombinants in the presence serial dilutions of the inhibitor. Table 1 is the key for the data in Table 2.
For orientation: pEC50 means the negative decadic logarithm of the EC50, by convention in mol/L. Take `C=C(C)[C@@H]1CC[C@]2(C(=O)OC)CC[C@]3(C)[C@H](CC[C@@H]4[C@@]5(C)CC=C(c6cccc(C(=O)O)c6)C(C)(C)[C@@H]5CC[C@]43C)[C@@H]12` [Example 1a, 3-((1R,3aS,5aR,5bR,7aR,11aS,13aR,13bR)-3a-(methoxycarbonyl)-5a,5b,8,8,11a-pentamethyl-1-(prop-1-en-2-yl)-2,3,3a,4,5,5a,5b,6,7,7a,8,11,11a,11b,12,13,13a,13b-octadecahydro-1H-cyclopenta[a]chrysen-9-yl)benzoic acid]: the pEC50 is < 6.00. On to `C=C(C)[C@@H]1CC[C@]2(C(=O)OC)CC[C@]3(C)[C@H](CC[C@@H]4[C@@]5(C)CC=C(c6ccc(C(=O)O)cc6)C(C)(C)[C@@H]5CC[C@]43C)[C@@H]12` [Example 1b, 4-((1R,3aS,5aR,5bR,7aR,11aS,13aR,13bR)-3a-(methoxycarbonyl)-5a,5b,8,8,11a-pentamethyl-1-(prop-1-en-2-yl)-2,3,3a,4,5,5a,5b,6,7,7a,8,11,11a,11b,12,13,13a,13b-octadecahydro-1H-cyclopenta[a]chrysen-9-yl)benzoic acid], for which the pEC50 was > 6.00.

As for `C=C(C)[C@@H]1CC[C@]2(C(=O)O)CC[C@]3(C)[C@H](CC[C@@H]4[C@@]5(C)CC=C(c6cccc(C(=O)O)c6)C(C)(C)[C@@H]5CC[C@]43C)[C@@H]12` [Example 2a, (1R,3aS,5aR,5bR,7aR,11aS,13aR,13bR)-9-(3-carboxyphenyl)-5a,5b,8,8,11a-pentamethyl-1-(prop-1-en-2-yl)-2,3,3a,4,5,5a,5b,6,7,7a,8,11,11a,11b,12,13,13a,13b-octadecahydro-1H-cyclopenta[a]chrysene-3a-carboxylic acid], the pEC50 was < 6.00. The figure for `C=C(C)[C@@H]1CC[C@]2(C(=O)O)CC[C@]3(C)[C@H](CC[C@@H]4[C@@]5(C)CC=C(c6ccc(C(=O)O)cc6)C(C)(C)[C@@H]5CC[C@]43C)[C@@H]12` [Example 2b, (1R,3aS,5aR,5bR,7aR,11aS,13aR,13bR)-9-(4-carboxyphenyl)-5a,5b,8,8,11a-pentamethyl-1-(prop-1-en-2-yl)-2,3,3a,4,5,5a,5b,6,7,7a,8,11,11a,11b,12,13,13a,13b-octadecahydro-1H-cyclopenta[a]chrysene-3a-carboxylic acid] is > 6.00; for `CC(C)[C@@H]1CC[C@]2(C(=O)O)CC[C@]3(C)[C@H](CC[C@@H]4[C@@]5(C)CC[C@H](c6cccc(C(=O)O)c6)C(C)(C)[C@@H]5CC[C@]43C)[C@@H]12` [Example 3a, (3aS,5aR,5bR,7aS,9S,11aS,13aR,13bR)-9-(3-carboxyphenyl)-1-isopropyl-5a,5b,8,8,11a-pentamethylicosahydro-1H-cyclopenta[a]chrysene-3a-carboxylic acid] it is 5.70.

On to `CC(C)[C@@H]1CC[C@]2(C(=O)O)CC[C@]3(C)[C@H](CC[C@@H]4[C@@]5(C)CC[C@H](c6ccc(C(=O)O)cc6)C(C)(C)[C@@H]5CC[C@]43C)[C@@H]12` [Example 3b, (1S,3aS,5aR,5bR,7aS,9S,11aS,11bR,13aR,13bR)-9-(4-carboxyphenyl)-1-isopropyl-5a,5b,8,8,11a-pentamethylicosahydro-1H-cyclopenta[a]chrysene-3a-carboxylic acid], for which the pEC50 is > 6.00. Under `C=C(C)[C@@H]1CC[C@]2(C(=O)O)CC[C@]3(C)[C@H](CC[C@@H]4[C@@]5(C)CC=C(c6ccc(CCC(=O)O)cc6)C(C)(C)[C@@H]5CC[C@]43C)[C@@H]12` [Example 4a, (1R,3aS,5aR,5bR,7aR,11aS,11bR,13aR,13bR)-9-(4-(2-carboxyethyl)phenyl)-5a,5b,8,8,11a-pentamethyl-1-(prop-1-en-2-yl)-2,3,3a,4,5,5a,5b,6,7,7a,8,11,11a,11b,12,13,13a,13b-octadecahydro-1H-cyclopenta[a]chrysene-3a-carboxylic acid] stands > 6.00; under `C=C(C)[C@@H]1CC[C@]2(C(=O)O)CC[C@]3(C)[C@H](CC[C@@H]4[C@@]5(C)CC=C(c6ccc(NC(=O)CCC(=O)O)cc6)C(C)(C)[C@@H]5CC[C@]43C)[C@@H]12` [Example 4b, (1R,3aS,5aR,5bR,7aR,11aS,11bR,13aR,13bR)-9-(4-(3-carboxypropanamido)phenyl)-5a,5b,8,8,11a-pentamethyl-1-(prop-1-en-2-yl)-2,3,3a,4,5,5a,5b,6,7,7a,8,11,11a,11b,12,13,13a,13b-octadecahydro-1H-cyclopenta[a]chrysene-3a-carboxylic acid], < 6.00. Consider `C=C(C)[C@@H]1CC[C@]2(C(=O)O)CC[C@]3(C)[C@H](CC[C@@H]4[C@@]5(C)CC=C(c6ccc(C7(C(=O)O)CC7)cc6)C(C)(C)[C@@H]5CC[C@]43C)[C@@H]12` [Example 4c, (1R,3aS,5aR,5bR,7aR,11aS,11bR,13aR,13bR)-9-(4-(1-carboxycyclopropyl)phenyl)-5a,5b,8,8,11a-pentamethyl-1-(prop-1-en-2-yl)-2,3,3a,4,5,5a,5b,6,7,7a,8,11,11a,11b,12,13,13a,13b-octadecahydro-1H-cyclopenta[a]chrysene-3a-carboxylic acid], for which the pEC50 is > 6.00. The figure for `C=C(C)[C@@H]1CC[C@]2(C(=O)O)CC[C@]3(C)[C@H](CC[C@@H]4[C@@]5(C)CC=C(c6ccc(C(=O)O)c(F)c6)C(C)(C)[C@@H]5CC[C@]43C)[C@@H]12` [Example 4d, (1R,3aS,5aR,5bR,7aR,11aS,11bR,13aR,13bR)-9-(4-carboxy-3-fluorophenyl)-5a,5b,8,8,11a-pentamethyl-1-(prop-1-en-2-yl)-2,3,3a,4,5,5a,5b,6,7,7a,8,11,11a,11b,12,13,13a,13b-octadecahydro-1H-cyclopenta[a]chrysene-3a-carboxylic acid] is > 6.00. The figure for `C=C(C)[C@@H]1CC[C@]2(C(=O)O)CC[C@]3(C)[C@H](CC[C@@H]4[C@@]5(C)CC=C(c6cccc(S(=O)(=O)NC)c6)C(C)(C)[C@@H]5CC[C@]43C)[C@@H]12` [Example 4e, (1R,3aS,5aR,5bR,7aR,11aS,11bR,13aR,13bR)-5a,5b,8,8,11a-pentamethyl-9-(3-(N-methylsulfamoyl)phenyl)-1-(prop-1-en-2-yl)-2,3,3a,4,5,5a,5b,6,7,7a,8,11,11a,11b,12,13,13a,13b-octadecahydro-1H-cyclopenta[a]chrysene-3a-carboxylic acid] is > 6.00; for `C=C(C)[C@@H]1CC[C@]2(C(=O)O)CC[C@]3(C)[C@H](CC[C@@H]4[C@@]5(C)CC=C(c6ccc(O)cc6)C(C)(C)[C@@H]5CC[C@]43C)[C@@H]12` [Example 4f, (1R,3aS,5aR,5bR,7aR,11aS,11bR,13aR,13bR)-9-(4-hydroxyphenyl)-5a,5b,8,8,11a-pentamethyl-1-(prop-1-en-2-yl)-2,3,3a,4,5,5a,5b,6,7,7a,8,11,11a, 11b,12,13,13a,13b-octadecahydro-1H-cyclopenta[a]chrysene-3a-carboxylic acid] it is > 6.00; for `C=C(C)[C@@H]1CC[C@]2(C(=O)O)CC[C@]3(C)[C@H](CC[C@@H]4[C@@]5(C)CC=C(c6cccc(NS(C)(=O)=O)c6)C(C)(C)[C@@H]5CC[C@]43C)[C@@H]12` [Example 4g, (1R,3aS,5aR,5bR,7aR,11aS,11bR,13aR,13bR)-5a,5b,8,8,11a-pentamethyl-9-(3-(methylsulfonamido)phenyl)-1-(prop-1-en-2-yl)-2,3,3a,4,5,5a,5b,6,7,7a,8,11,11a,11b,12,13,13a,13b-octadecahydro-1H-cyclopenta[a]chrysene-3a-carboxylic acid] it is < 6.00. Under `C=C(C)[C@@H]1CC[C@]2(C(=O)O)CC[C@]3(C)[C@H](CC[C@@H]4[C@@]5(C)CC=C(c6ccc(/C=C/C(=O)O)cc6)C(C)(C)[C@@H]5CC[C@]43C)[C@@H]12` [Example 4h, (1R,3aS,5aR,5bR,7aR,11aS,11bR,13aR,13bR)-9-(4-((E)-2-carboxyvinyl)phenyl)-5a,5b,8,8,11a-pentamethyl-1-(prop-1-en-2-yl)-2,3,3a,4,5,5a,5b,6,7,7a,8,11,11a,11b,12,13,13a,13b-octadecahydro-1H-cyclopenta[a]chrysene-3a-carboxylic acid] stands > 6.00; under `C=C(C)[C@@H]1CC[C@]2(C(=O)O)CC[C@]3(C)[C@H](CC[C@@H]4[C@@]5(C)CC=C(c6cccc(-c7nn[nH]n7)c6)C(C)(C)[C@@H]5CC[C@]43C)[C@@H]12` [Example 4i, (1R,3aS,5aR,5bR,7aR,11aS,11bR,13aR,13bR)-9-(3-(2H-tetrazol-5-yl)phenyl)-5a,5b,8,8,11a-pentamethyl-1-(prop-1-en-2-yl)-2,3,3a,4,5,5a,5b,6,7,7a,8,11,11a,11b,12,13,13a,13b-octadecahydro-1H-cyclopenta[a]chrysene-3a-carboxylic acid], < 6.00.
